Consider three molecules from US12552760B2, “Compounds for increasing the nicotinamide adenine dinucleotide in a subject and methods of use thereof” (The Board of Trustees of the University of Illinois, priority 2022, dated 2026).

Experiment [1] concerns HT-22 mouse hippocampal cell line. Description: TNFα-induced ROS in HT-22 cells (MitoSOX). The class given is cell-based. The settings on record: screened against 1 μg/mL TNFα (FIG. 2A). The procedure: Cell Culture and Drug Treatments. HT22 mouse hippocampal neuronal cells (a gift from the Salk Institute) were grown in Dulbecco's modified Eagle's medium (DMEM) containing 10% FBS and 1× Antibiotic-Antimycotic (ABAM). Cells were maintained in a humidified 5% CO2 atmosphere incubator at 37° C., and were passaged when 60-80% confluent (1-2 days) by removing media, rinsing with phosphate buffered saline (PBS), and enzymatically detaching with trypsin solution. New culture dishes were seeded with ¼ to ½ the cells from the previous dish.
All assays were performed using cells with passage number 12-50. The inner 60 wells of black-walled (Corning®3603/3604) 96-well plates were treated with poly D-lysine (30 μL/well) making sure to cover the entire well surface for 15-30 seconds and then washed thoroughly with sterile water (3×−200 μL/well). TNFα stock solutions (10 μg/mL, PBS (0.1% BSA)) were made, aliquoted, and stored at −80° C. Glutamate stock solutions were made fresh immediately before assay. All compound stock solutions (10 mM, DMSO) were made and stored at −20° C.
Cells were plated at a seeding density of 3,000-5,000 cells/well and allowed to incubate overnight. The next day (18-24 hours later) cells were pretreated with N-PAMs, carefully ensuring equivalent vehicle (DMSO/PBS) composition in each well. After 18-24 hours, stressors (glutamate or TNFα) were treated. Live cell count, ROS level, and total cell count were then assessed after another 18-24 hours.
ROS Detection. ROS levels were quantified using MitoSOX Red Mitochondrial Superoxide Indicator (Invitrogen). At treatment endpoint, the cell culture media was removed and replaced with phosphate buffered saline (PBS) containing 1 μM calcein-AM, 5 μM MitoSOX, and 10 μg/mL Hoechst dyes. Cells were incubated for 30-45 minutes and then dye-containing PBS was dumped and replaced with 100 μL/well fresh PBS. The plate was immediately analyzed in the Celigo Imaging Cytometer using the Live-Dead-Total protocol, where MitoSOX was used in place of propidium iodide. The cell counts and fluorescence intensities for living (calcein), MitoSOX-stained, and total (Hoechst) were acquired. MitoSOX average mean fluorescence intensity (“dead” average mean intensity) was used to quantify mitochondrial ROS. All readouts used were transformed into fold-change over vehicle treatment for visualization.
We set out to design assays representing the connection between OS and the multifaceted pathophysiology of aging and ND. We assessed multiple treatments in several cell lines to model OS induced by diverse factors such as neuroinflammatory signaling, neurotransmitter signaling, and direct oxidant species. Assay development highlighted the neuronal HT-22 mouse hippocampal cell line as most robust for these purpose s, and inflammatory cytokine TNFα as being a reliable and disease-relevant method for inducing ROS generation.

For experiment [2], the target named is T1, NAMPT (Homo sapiens, UniProt P43490).
T1 construct: His6 (C); made in house
T1 sequence (P43490 whole entry): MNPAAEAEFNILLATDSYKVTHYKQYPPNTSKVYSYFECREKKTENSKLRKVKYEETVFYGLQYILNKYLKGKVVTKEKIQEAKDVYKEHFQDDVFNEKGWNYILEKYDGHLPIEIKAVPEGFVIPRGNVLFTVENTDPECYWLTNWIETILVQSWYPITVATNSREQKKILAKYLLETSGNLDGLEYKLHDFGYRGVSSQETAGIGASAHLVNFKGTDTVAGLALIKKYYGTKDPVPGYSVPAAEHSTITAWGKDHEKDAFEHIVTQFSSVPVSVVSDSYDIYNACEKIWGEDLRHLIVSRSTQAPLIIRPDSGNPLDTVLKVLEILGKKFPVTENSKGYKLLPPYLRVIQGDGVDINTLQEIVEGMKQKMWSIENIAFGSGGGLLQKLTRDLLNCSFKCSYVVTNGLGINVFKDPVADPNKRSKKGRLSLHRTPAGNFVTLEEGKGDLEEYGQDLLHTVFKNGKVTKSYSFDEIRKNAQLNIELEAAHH
Description: NP-A3-B2:NAMPT co-crystal structure (X-ray diffraction). The settings on record: NP-A3-B2, NAM and NAMPT; 1.3-1.5 Å resolution. As to the method: X-ray diffraction crystallography. Crystals of NAMPT complexed with NAM and N-PAM were grown by hanging drop vapor diffusion at 16° C. Prior to crystallization, 11 mg/mL NAMPT protein was incubated with 10 mM NAM and 1 mM compound for 30 min on ice. Crystals of the complex were grown by mixing 1-2 μL of NAMPT complex with 2 μL of reservoir solution containing 0.1 M Tris-HCl, pH 8, 0.1 M KCl, and 24-28% PEG 2000 MME or 0.1 M Tris-HCl, pH 8.5, 0.2 M NaCl, 20% glycerol and 13-18% PEG 3350. Crystals grew overnight from the PEG 2000 MME conditions and were used to streak seed drops of NAMPT complex equilibrating against the PEG 3350 conditions.
Data collection and structure refinement. The glycerol present in the crystallization solution was sufficient to cryo-protect crystals, which were flash-cooled in liquid nitrogen. Data were collected on a MAR300 detector at 0.979 Å at the Life Sciences Collaborative Access Team beamline 21-ID-F at the Advanced Photon Source, Argonne National Laboratory. Data indexing, integration, and scaling were performed using XDS, and phases were determined by molecular replacement using Molrep and a NAMPT-NAM co-crystal structure (PDB entry: 2E5D) as search model. Rigid body refinement followed by iterative rounds of restrained refinement and model building were performed with Phenix and Coot.

In experiment [3] the test system is THP-1 human monocytes. The experiment in a line: Measurement of cellular NAD^+ levels in THP-1 cell cultures (NAD/NADH-Glo). The class given is cell-based. The settings on record: dose response study, 30 μM (FIG. 1A). As to the method: Measurement of cellular NAD^+ levels in THP-1 cell cultures. Using FK-866 and NMN as negative and positive controls, respectively, we explored a number of cell lines to select a highly reproducible model system with good dynamic range. We optimized a commercial NAD-glo assay in the THP-1 human leukemic monocyte cell line in 96-well plates, measuring NAD^+ after incubation with test compounds for 24 hours. […] All cells were grown at 37° C., under 5% CO2 in a humidified incubator. Low passage THP-1 cells (37,500 cells/well) were seeded in 96-well plates and incubated at 37° C. and 5% CO2 for 1½ h prior to a 24 h treatment. All compounds were dissolved in DMSO, and final DMSO concentrations never exceeded 1%. The NAD^+ levels in the cells are measured using the NAD^+/NADH-Glo™ assay (Promega). The assays were performed in triplicate for each concentration and the IC50 values were determined from non-linear regression analysis of the dose-response curve generated in GraphPad Prism 9.

The target of experiment [4] is T1, NAMPT. Description: NAMPT coupled enzyme activity assay (HTS coupled three-enzyme assay). The class given is biochemical. The following applies: dose-response (FIG. 1B). The text has this: NAMPT coupled enzyme activity assay. The NAMPT enzyme assay is based on conditions from Burgos and Schramm and adapted to include a cycling reaction to quantitate NAD^+ production colorimetrically^1. The assay follows the NAMPT-catalyzed production of NMN from substrates NAM and PRPP by coupling NMN formation to the NMNAT reaction, which produces NAD^+ from NMN and ATP. The NAD^+ is then cycled by alcohol dehydrogenase (ADH) and diaphorase to continuously produce WST-1 formazan, which can be detected at 450 nm. Assays are performed at 25° C. in clear 384-well plates, with a final assay volume of 30 μL, and contain the following: 50 mM HEPES, pH 7.5, 5 mM MgCl2, 50 mM NaCl, 0.01% Triton-X 100, 2.5 mM ATP, 40 μM PRPP, 1-500 μM NAM, 1.5 μL WST-1 (Roche Cell Proliferation Reagent), 1 U/mL ADH, 0.083 U/mL diaphorase, 1.5% ethanol, 1% DMSO, 30 nM NAMPT, and 7.4 nM purified human NMNAT1. N-terminal His6-NMNAT1 and C-terminal His6-NAMPT were overexpressed and purified by metal chelate affinity chromatography. Following assay assembly, well signals were measured continuously at 450 nm on a Tecan Infinite M200 plate reader for 1 h with intermittent shaking. Slopes of the linear portions of the reaction progress curves were recorded and corrected for background by subtracting the average slope of control wells containing NAMPT inhibitor FK866.
A high-throughput screen (HTS) of 22,000 compounds was performed to identify those that augment NAMPT enzymatic activity^38. Screening used a coupled three-enzyme assay to detect conversion of NAM to NAD^+, as previously described by our group^37. […] We also established assays in which to assess the ability of our compounds to mitigate neuronal oxidative stress.

Experiment [5] relates to APPSwe/PSEN1dE9 N2A cells. The settings on record: 10 mM, 72 h; Long, A. N. et al. 2015; cited from earlier work.
Experiment [6] relates to APPSwe/PSEN1dE9 mice. The settings on record: 100 mg/kg every other day for 28 days; Long, A. N. et al. 2015; cited from earlier work.
Experiment [7] has as its system Sprague-Dawley rats. The settings on record: 100 mg/kg (i.p.) every other day for 3 months; Chandrasekaran, K. et al. 2020; cited from earlier work.
Experiment [8] has as its system CL2355 worms. The following applies: 5 mM, 2 nematode generations; Fang, E. F. et al. 2019; cited from earlier work.
Experiment [9] concerns hSOD1^G93A mouse derived astrocytes and motor neurons. The settings on record: NR or NMN, 5 mM, 24-72 h; Harlan, B. A. et al. 2019; cited from earlier work.
In experiment [10] the test system is APPSwe/PSEN1dE9 mice. The settings on record: 100 mg/kg (s.c.) every other day for 28 days; Yao Z. et al. 2017; cited from earlier work.
Experiment [11] concerns CD1 mice. The following applies: 300 mg/kg 30 minutes post ICH from tail veil for 24 h or 7 days with (300 mg/kg/d); Wei, C. C. et al. 2017; cited from earlier work.
For experiment [12], the system named is Wistar rats. The following applies: 500 mg/kg/d (i.p.) 10 days; hippocampal slices treated with 10 μM oAβ1-42 for 6 h +/− 1 mM NMN; Wang, X. et al. 2016; cited from earlier work.

As a reminder, the EC50 is the midpoint of the concentration-response curve.

On to `COc1ccc(CN(CCC2(C(C)C)CCOC(C)(C)C2)C(=O)c2ccco2)cc1` (stereo not drawn) [NP-A3-B2, N-[(4-Methoxyphenyl)methyl]-N-[2-[tetrahydro-2,2-dimethyl-4-(1-methylethyl)-2H-pyran-4-yl]ethyl]-2-furancarboxamide], for which the “effect on ROS levels across tested concentrations” value in experiment [1] is “little effect until 40 μM”. In experiment [2], the “binding mode in co-crystal structure” value is listed as “allosteric binding of the hit to the NAMPT rear channel”. Besides, in experiment [3], the “NAD^+ fold over control” value is 1.18 fold and the “increase in NAD^+ over control” value was found to be 18%. The EC50 in [4] (NAMPT activation) turned out to be 4.05 µM. For the same molecule, the Amax in [4] is 1.85 fold.

With `NC(=O)c1ccc[n+]([C@@H]2O[C@H](COP(=O)([O-])OP(=O)(O)OC[C@H]3O[C@@H](n4cnc5c(N)ncnc54)[C@H](O)[C@@H]3O)[C@@H](O)[C@H]2O)c1` [NAD^+, Nicotinamide adenine dinucleotide], in experiment [5], the mitochondrial deficits result is recorded as “Reversed”.

With `NC(=O)c1ccc[n+]([C@@H]2O[C@H](COP(=O)([O-])O)[C@@H](O)[C@H]2O)c1` [NMN, nicotinamide mononucleotide], in [6], the APP levels result was “Decreased APP” and the mitochondrial deficits entry is given as “Reversed”. Further, in experiment [7], the Neuroprotective result is “Neuroprotective”; the “brain NAD^+, metabolites, and neurotransmitters” value is on record as “Normalized brain”; the “hippocampal CA1 volume” value is listed as “Preserved”; the memory entry is recorded as “Improved memory”. Moreover, the mitochondrial function entry in experiment [7] is “Improved”. In addition, the “cognitive decline and memory impairment” value in experiment [8] is given as “Ameliorated”. Further, the “Nrf2 mediated Antioxidant Response Element activation” value in [9] was “Increased Nrf2”. Further, in experiment [10], the APP processing result is recorded as “Biased APP to α”, the Aβ aggregation entry is “· Decreased Aβ”, the cognitive impairments entry was “Prevented” and the neuroinflammation result is “Decreased”. Besides, the synaptic loss entry in experiment [10] is given as “Prevented”. Moreover, in experiment [11], the Neuroprotective result is recorded as “Neuroprotective”; the acute brain injury result is “Protected against”; the “motor function recovery over 7 days” value was “Enhanced motor”; the “oxidative stress and neuroinflammation” value is given as “Reduced”. Also, in experiment [12], the LTP result is on record as “Improved LTP”; the “NAD^+ and ATP” value was “· Restored NAD^+”; the Neuroprotection entry is “Neuroprotection”; the oxidative stress entry is given as “Attenuated”. In [12], the “spatial learning and memory” value is “Improved spatial”.
